This note sets out measurements from patent US20260364184A1, “COMPOUND BASED ON OXOISOINDOLINYL-SUBSTITUTED TETRAHYDROPYRIMIDINE-DIONE AND USE THEREOF” (GLUETACS THERAPEUTICS (SHANGHAI) CO., LTD., priority 2023, published 2026).

SMILES strings stand for the structures.

In assay [1] the target is T1, EZH2 (Homo sapiens, UniProt Q15910+Q96SW2).
T1 construct: expression of target proteins in cells; endogenous in cells
Description: Western blot degradation of EZH2. Type of assay: cell-based. To be noted: hPBMC Cell; 24 hours. How it is done: Conventional Western blot assay was performed to evaluate the effects of the compounds of the present disclosure on the expression of target proteins in cells.
(1) Cell Seeding and Protein Harvesting: The selected cells were processed according to the cell seeding procedure and protein harvesting procedure in Table II-2.
(2) To the collected supernatant, 5×SDS sample loading buffer was added, followed by denaturation at 95 °C for 5 minutes. The denatured samples were then separated by SDS-PAGE electrophoresis on a polyacrylamide gel. Proteins were transferred to a nitrocellulose membrane (0.45 μm NC membrane), blocked with blocking buffer at room temperature for 1 hour, and subjected to antibody incubation and development procedures according to the antibody manufacturer's instructions (Cell Signaling Technology).
Half-Maximal Degradation Concentration value (the drug concentration required for degrading proteins by 50%, abbreviated as DC50) reads method: comparing the grayscale values of Western blot bands from drug-treated samples with those from blank DMSO-treated controls, and identifying the drug concentration range at which the grayscale value is half that of the DMSO-treated control bands.
DC50 values can be calculated using ImageJ software to measure grayscale values of Western blot bands from drug-treated samples. The concentration-response curve is fitted to estimate the drug concentration corresponding to half the grayscale value.
Target protein remaining (%) refers to the percentage of target protein remaining in cells after treatment with protein degrader compounds.
Calculation method for target protein remaining (%): Use ImageJ software to measure grayscale values of Western blot bands from drug (protein degrader)-treated samples. The grayscale value of drug-treated bands is divided by that of internal control protein bands, and the resulting quotient is normalized to obtain the relative percentage of remaining target protein after protein degrader treatment.
Target protein degradation rate (%)=1−target protein remaining (%).
For orientation: A western blot detects proteins with antibodies after separation by electrophoresis.

The test system of assay [2] is Human neuroblastoma cell line (SK-N-AS). Description: Inhibition of SK-N-AS cell proliferation (CellTiter luminescent viability). To be noted: Table II2, EZH2 inhibitor-based, 96 hours; for inhibition at 0.01 µM: 10 nM, read-out: Inhibition Rate at 10 nM (%); for inhibition at 0.5 µM: 500 nM, read-out: Inhibition Rate at 500 nM (%). The assay is classed as cell-based.

The test system of assay [3] is Human malignant melanoma cell line (A375). Description: Inhibition of A375 cell proliferation (CellTiter luminescent viability). To be noted: A-375, Table III (II1), EZH2 inhibitor-based, 96 hours; for inhibition at 0.01 µM: A375, 10 nM, read-out: Inhibition Rate at 10 nM (%); for inhibition at 0.5 µM: A375, 500 nM, read-out: Inhibition Rate at 500 nM (%). How it is done: The tumor cells used herein were cultured in a cell culture medium listed in table 3 at 37 °C in an incubator with 5% CO2. Prior to experimentation, all cell lines used were correctly identified by STR profiling, and tested negative for mycoplasma contamination using a mycoplasma detection kit through routine screenings.
The IC50 values of the compounds of the present disclosure (including the compounds in Table 1, Table 2, and Examples 1-468) were determined using the CellTiter-Meiluncell Luminescent Cell Viability Assay Kit from Dalian Meilun Biotech Co., Ltd. The detailed procedure is as follows: Tumor cells were seeded in 96-well cell culture plates at the densities specified in Table 4. On the following day, the test compounds of the present disclosure were subjected to serial dilution. The dilution can be performed according to one of the following two methods: • (1) The first dilution method: The test compounds of the present disclosure (including the compounds in Table 1, Table 2, and Examples 1-468) were subjected to 5-fold serial dilutions starting from a highest concentration of 2000 μM, resulting in a total of 9 concentrations from high to low (2000, 400, 80, 16, 3.2, 0.64, 0.128, 0.0256, 0.00512 μM). Subsequently, 0.5 μL of the test compound dilution was transferred into the 96-well plate containing the cells, with each well containing 100 μL of cell culture medium. […] Into the 96-well plate, the diluted test compounds and corresponding detection reagents were added, resulting in final test compound concentrations of 500 nM and 10 nM, respectively. The experimental procedure is described below using the diluted 2 μM test compound as an example.
0.5 μL of the aforementioned diluted compound of the present disclosure (including the compounds in Table 1, Table 2, and Examples 1-468) was added to the seeded cells in 100 μL of medium, yielding a final test compound concentration of 10 nM. After the cells were treated with the compounds of the present disclosure for a specified period, the cell viability assay reagent was added to the culture medium according to the kit's instructions to determine cell viability. […] All controls were treated using the same procedure as the compounds of the present disclosure. The growth inhibition curves for the compounds of the present disclosure were plotted using Prism GraphPad software, and the IC50 values were calculated therefrom.

T1 sequence (Q15910 whole entry): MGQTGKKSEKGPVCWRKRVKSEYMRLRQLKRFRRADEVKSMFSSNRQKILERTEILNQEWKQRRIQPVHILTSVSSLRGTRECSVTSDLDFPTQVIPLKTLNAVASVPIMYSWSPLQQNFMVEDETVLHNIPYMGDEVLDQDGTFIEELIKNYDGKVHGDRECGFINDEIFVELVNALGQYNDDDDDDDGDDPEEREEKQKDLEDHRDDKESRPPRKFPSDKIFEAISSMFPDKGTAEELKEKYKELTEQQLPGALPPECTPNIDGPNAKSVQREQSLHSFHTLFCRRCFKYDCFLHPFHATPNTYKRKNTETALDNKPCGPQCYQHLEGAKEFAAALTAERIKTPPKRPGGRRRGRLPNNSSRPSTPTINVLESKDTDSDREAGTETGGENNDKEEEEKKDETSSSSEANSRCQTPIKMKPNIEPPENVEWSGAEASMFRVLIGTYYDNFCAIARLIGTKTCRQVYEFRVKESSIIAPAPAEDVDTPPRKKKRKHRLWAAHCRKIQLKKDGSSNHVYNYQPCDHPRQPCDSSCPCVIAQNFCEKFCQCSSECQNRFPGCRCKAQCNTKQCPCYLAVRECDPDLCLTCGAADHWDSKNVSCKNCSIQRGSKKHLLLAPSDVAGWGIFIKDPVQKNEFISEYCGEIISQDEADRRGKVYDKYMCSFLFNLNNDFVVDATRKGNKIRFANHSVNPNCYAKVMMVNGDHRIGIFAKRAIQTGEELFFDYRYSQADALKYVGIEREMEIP
T1 sequence (O75530 whole entry partner): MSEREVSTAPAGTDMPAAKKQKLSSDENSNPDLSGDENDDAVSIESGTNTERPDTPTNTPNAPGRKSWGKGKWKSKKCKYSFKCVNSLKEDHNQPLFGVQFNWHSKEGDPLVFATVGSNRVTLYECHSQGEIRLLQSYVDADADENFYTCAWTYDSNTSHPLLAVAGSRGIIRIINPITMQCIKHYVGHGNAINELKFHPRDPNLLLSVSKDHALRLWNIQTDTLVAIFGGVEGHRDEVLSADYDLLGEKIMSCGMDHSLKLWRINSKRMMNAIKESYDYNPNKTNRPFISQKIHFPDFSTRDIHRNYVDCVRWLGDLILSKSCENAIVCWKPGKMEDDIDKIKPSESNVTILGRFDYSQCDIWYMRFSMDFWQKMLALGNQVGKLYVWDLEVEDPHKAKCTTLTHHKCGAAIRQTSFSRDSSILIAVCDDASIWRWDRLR
T1 sequence (Q15022 whole entry partner): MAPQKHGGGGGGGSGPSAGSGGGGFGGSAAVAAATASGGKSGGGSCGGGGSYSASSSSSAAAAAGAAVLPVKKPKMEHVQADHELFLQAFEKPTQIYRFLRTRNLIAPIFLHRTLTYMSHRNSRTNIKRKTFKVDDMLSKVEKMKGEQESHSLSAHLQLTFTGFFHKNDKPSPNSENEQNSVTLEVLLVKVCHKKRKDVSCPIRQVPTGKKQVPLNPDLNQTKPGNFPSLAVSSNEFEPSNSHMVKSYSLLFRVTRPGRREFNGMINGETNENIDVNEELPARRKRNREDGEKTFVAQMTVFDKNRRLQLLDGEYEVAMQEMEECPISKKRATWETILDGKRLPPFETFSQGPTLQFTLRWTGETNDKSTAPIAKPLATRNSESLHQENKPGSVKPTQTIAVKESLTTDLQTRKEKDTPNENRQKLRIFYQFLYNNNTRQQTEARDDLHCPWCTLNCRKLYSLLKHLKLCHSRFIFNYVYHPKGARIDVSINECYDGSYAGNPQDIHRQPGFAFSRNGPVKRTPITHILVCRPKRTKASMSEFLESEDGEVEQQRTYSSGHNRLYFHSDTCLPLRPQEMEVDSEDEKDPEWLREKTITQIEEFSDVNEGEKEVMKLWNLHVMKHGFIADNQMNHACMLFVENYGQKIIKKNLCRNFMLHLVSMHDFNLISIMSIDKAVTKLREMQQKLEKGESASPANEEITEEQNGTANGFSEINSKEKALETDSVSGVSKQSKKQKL
T1 sequence (Q96SW2 whole entry): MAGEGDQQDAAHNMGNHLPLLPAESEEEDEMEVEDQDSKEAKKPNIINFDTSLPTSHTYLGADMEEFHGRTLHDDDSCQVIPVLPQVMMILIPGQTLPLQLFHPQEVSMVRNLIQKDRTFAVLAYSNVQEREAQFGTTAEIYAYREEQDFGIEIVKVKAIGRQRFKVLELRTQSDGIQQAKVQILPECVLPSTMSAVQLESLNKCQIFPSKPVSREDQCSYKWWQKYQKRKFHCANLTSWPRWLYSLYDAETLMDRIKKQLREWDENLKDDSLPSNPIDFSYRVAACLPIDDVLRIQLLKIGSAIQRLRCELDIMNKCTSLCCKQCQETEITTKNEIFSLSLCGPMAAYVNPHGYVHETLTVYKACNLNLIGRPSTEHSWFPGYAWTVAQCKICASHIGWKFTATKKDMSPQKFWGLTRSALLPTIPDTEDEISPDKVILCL
T1 sequence (Q16531 whole entry partner): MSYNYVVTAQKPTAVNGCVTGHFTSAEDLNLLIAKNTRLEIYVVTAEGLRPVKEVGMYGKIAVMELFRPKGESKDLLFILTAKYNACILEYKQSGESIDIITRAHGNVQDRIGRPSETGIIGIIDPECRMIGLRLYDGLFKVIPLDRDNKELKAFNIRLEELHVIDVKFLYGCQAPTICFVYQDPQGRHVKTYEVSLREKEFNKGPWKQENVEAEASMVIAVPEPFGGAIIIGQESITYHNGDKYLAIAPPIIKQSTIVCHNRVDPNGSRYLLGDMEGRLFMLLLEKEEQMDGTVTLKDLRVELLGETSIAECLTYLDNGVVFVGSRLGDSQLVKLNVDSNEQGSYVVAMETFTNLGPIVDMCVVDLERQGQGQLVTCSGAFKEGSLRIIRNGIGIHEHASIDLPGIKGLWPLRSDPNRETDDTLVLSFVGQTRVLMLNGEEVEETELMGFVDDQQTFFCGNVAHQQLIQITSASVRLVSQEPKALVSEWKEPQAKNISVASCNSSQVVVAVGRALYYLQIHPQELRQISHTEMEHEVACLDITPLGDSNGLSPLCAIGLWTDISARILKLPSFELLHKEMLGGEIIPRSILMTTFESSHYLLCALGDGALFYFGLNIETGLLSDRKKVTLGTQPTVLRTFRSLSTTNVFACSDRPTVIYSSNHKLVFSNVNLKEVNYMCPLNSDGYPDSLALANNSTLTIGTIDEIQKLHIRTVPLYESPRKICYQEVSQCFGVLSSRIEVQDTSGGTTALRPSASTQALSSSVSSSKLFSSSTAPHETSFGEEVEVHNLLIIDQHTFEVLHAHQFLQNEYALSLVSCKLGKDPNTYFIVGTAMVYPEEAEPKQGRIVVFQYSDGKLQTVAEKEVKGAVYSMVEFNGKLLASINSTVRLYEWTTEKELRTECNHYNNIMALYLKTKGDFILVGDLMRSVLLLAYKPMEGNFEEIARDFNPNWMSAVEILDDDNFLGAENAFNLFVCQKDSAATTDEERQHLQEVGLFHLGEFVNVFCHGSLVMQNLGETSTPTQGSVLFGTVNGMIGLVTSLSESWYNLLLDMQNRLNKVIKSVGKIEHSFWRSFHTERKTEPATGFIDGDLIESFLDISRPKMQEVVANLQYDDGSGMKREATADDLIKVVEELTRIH

For the molecule `CCCc1cc(C)[nH]c(=O)c1CNC(=O)c1cc(-c2ccc(N3CCC(N(C)Cc4ccc5c(c4)C(=O)N(N4CCC(=O)NC4=O)C5=O)CC3)nc2)cc2c1cnn2C(C)C` [GT-08421, 6-(6-(4-(((2-(2,4-dioxotetrahydropyrimidin-1(2H)-yl)-1,3-dioxoisoindolin-5-yl)methyl)(methyl)amino)piperidin-1-yl)pyridin-3-yl)-1-isopropyl-N-((6-methyl-2-oxo-4-propyl-1,2-dihydropyridin-3-yl)methyl)-1H-indazole-4-carboxamide], in assay [1], the “Degradation of substrate protein EZH2 (substrate protein remaining %)” value (shortened to “Degradation … (substrate protein remaining %)”) is on record as “A (0%≤substrate protein remaining %≤80%)”. Besides, in assay [2], the inhibition at 0.01 µM lay within 20 to 30% and the inhibition at 0.5 µM lay in the range of 20 to 30%. In addition, in assay [3], the inhibition at 0.01 µM lay within 15 to 20% and the inhibition at 0.5 µM lay in the range of 20 to 30%.

With `CCN(c1cc(-c2ccc(N3CCN(Cc4ccc5c(c4)CN(N4CCC(=O)NC4=O)C5=O)CC3)cc2)cc(C(=O)NCc2c(C)cc(C)[nH]c2=O)c1C)C1CCOCC1` [GT-08510, N-((4,6-dimethyl-2-oxo-1,2-dihydropyridin-3-yl)methyl)-4′-(4-((2-(2,4-dioxotetrahydropyrimidin-1(2H)-yl)-1-oxoisoindolin-5-yl)methyl)piperazin-1-yl)-5-(ethyl(tetrahydro-2H-pyran-4-yl)amino)-4-methyl-[1,1′-biphenyl]-3-carboxamide], in assay [1], the “Degradation … (substrate protein remaining %)” value was “A (0%≤substrate protein remaining %≤80%)”. In assay [2], the inhibition at 0.01 µM was 15 to 20% and the inhibition at 0.5 µM was 20 to 30%.

On to `CCCc1cc(C)[nH]c(=O)c1CNC(=O)c1cc(-c2ccc(N3CCN(C4CCN(Cc5ccc6c(c5)C(=O)N(N5CCC(=O)NC5=O)C6=O)CC4)CC3)nc2)cc2c1cnn2C(C)C` [GT-08423, 6-(6-(4-(1-((2-(2,4-dioxotetrahydropyrimidin-1(2H)-yl)-1,3-dioxoisoindolin-5-yl)methyl)piperidin-4-yl)piperazin-1-yl)pyridin-3-yl)-1-isopropyl-N-((6-methyl-2-oxo-4-propyl-1,2-dihydropyridin-3-yl)methyl)-1H-indazole-4-carboxamide], for which the “Degradation … (substrate protein remaining %)” value in assay [1] is “A (0%≤substrate protein remaining %≤80%)”. Besides, in assay [2], the inhibition at 0.01 µM fell in the range of 20 to 30% and the inhibition at 0.5 µM is 40 to 50%. In assay [3], the inhibition at 0.01 µM lay within 20 to 30% and the inhibition at 0.5 µM was 30 to 40%.

On to `CCN(c1cc(-c2ccc(N3CCN(C4CCN(CC5CCN(c6ccc7c(c6)C(=O)N(N6CCC(=O)NC6=O)C7=O)CC5)CC4)CC3)cc2)cc(C(=O)NCc2c(C)cc(C)[nH]c2=O)c1C)C1CCOCC1` [GT-08524, N-((4,6-dimethyl-2-oxo-1,2-dihydropyridin-3-yl)methyl)-4′-(4-(1-((1-(2-(2,4-dioxotetrahydropyrimidin-1(2H)-yl)-1,3-dioxoisoindolin-5-yl)piperidin-4-yl)methyl)piperidin-4-yl)piperazin-1-yl)-5-(ethyl(tetrahydro-2H-pyran-4-yl)amino)-4-methyl-[1,1′-biphenyl]-3-carboxamide], for which, in assay [1], the “Degradation … (substrate protein remaining %)” value is recorded as “A (0%≤substrate protein remaining %≤80%)”. Moreover, in assay [2], the inhibition at 0.01 µM fell in the range of 15 to 20% and the inhibition at 0.5 µM lay in the range of 20 to 30%.

For orientation: inhibition means the change of the read-out against control, counted positive when it falls.
